In publication PMC5501099 (Malaria Journal, 2017):

How the values were obtained:
[1] = Population pharmacokinetic model of ivermectin in healthy Thai volunteers; format: in vivo, human; conditions: single oral 200 µg/kg
Procedure: The first-order conditional estimation method with interaction was used throughout model development. Model diagnostics and automation were performed using Xpose version 4.0 [25], Pirana and Pearl-speaks-NONMEM (PsN; version 3.6.0). The objective function value (OFV; calculated by NONMEM as proportional to −2 × loglikelihood of data) was used to discriminate between hierarchical models. A difference between two models (ΔOFV) of >3.84 and >10.83 were considered statistically significant at a P value of <0.05 and <0.001, respectively. Models were assessed using standard goodness-of-fit and simulation-based diagnostics (i.e. numerical and visual predictive checks using 2000 simulations). The robustness of the final model was evaluated by bootstrapping (n = 1000).
Different disposition models (one-, two- and three-compartment models) and absorption models (first-order and transit models) were evaluated to describe the pharmacokinetic structural model of ivermectin. Pharmacokinetic parameters were assumed to be log-normally distributed and inter-individual variability was implemented as exponential functions. […] The influence of other individual covariates including gender, age, haemoglobin, haematocrit, total bilirubin, direct bilirubin, alkaline phosphatase, aspartate aminotransferase, and alanine aminotransferase, serum creatinine, blood urea nitrogen, and albumin level were investigated using a stepwise covariate approach (P value <0.05 and <0.001 for forward and backward addition and deletion, respectively).
There were no observations reported to be below the lower limit of quantification. […] A flexible transit absorption model (n = 2) improved the model fit substantially compared to the first-order absorption (∆OFV = −378). […] Implementing body weight as a covariate in the model also allowed for translation and interpretation to other study populations.

Anopheles minimus = assay: Ivermectin lethal concentration / survivorship, membrane blood feeding; format: in vivo; conditions: An. minimus
Procedure: Powdered formulation of ivermectin compound was obtained from Sigma-Aldrich (St. Louis, USA). […] Control blood meals consisted of previously frozen DMSO diluted in PBS to match the ratio of DMSO and PBS fed to mosquitoes in the ivermectin-containing blood meals.
After blood feeding via a membrane feeder, unfed mosquitoes were removed and discarded. Blood-fed mosquitoes were held in 3.5-l plastic containers with access to 10% sucrose and kept in an incubator at 25 ± 1 °C and 70 ± 10% relative humidity, on a 12 h light:12 h dark photoperiod. Mosquito survivorship was monitored for 7 days, every 24 h dead mosquitoes were removed and recorded, and on day 7 all remaining mosquitoes were frozen and counted as alive.
(§1) A non-linear mixed effects model with probit analysis was used to calculate LC50, LC25 and LC5 values with Statistical Analysis Software (SAS Institute Inc, Cary, NC, USA) as described previously. Hazard ratios for mosquito mortality at day 7 post blood meal were calculated using Poisson regression analysis with STATA version 12.1 (StataCorp LLC, College Station, TX, USA). Oocyst and sporozoite prevalence (i.e. proportion of infected mosquitoes) was compared by Fishers Exact test. Oocyst intensity (i.e. number of oocysts per infected mosquito) was compared by the Mann–Whitney U test. To determine if P. vivax infection altered mosquito survivorship post-ivermectin ingestion survival data were analysed by the Mantel–Cox method. The Fishers Exact, Mann–Whitney U, and survival analysis data were analysed with Prism 7 (GraphPad Software Inc, San Diego, CA, USA).

Plasmodium vivax = assay: Effect of ivermectin on Plasmodium vivax sporogony in Anopheles minimus; format: in vivo; conditions: An. minimus
Procedure: Mosquitoes reared in Bangkok were transported to a field laboratory at the Mae Sot Malaria Medical Clinic in Mae Sot, Tak Province. Plasmodium vivax-infected blood was collected from malaria-infected patients reporting to malaria clinics operated by the Thailand Ministry of Public Health in Tak Province (protocol WRAIR#1949A). Patient plasma was removed and replaced by centrifuging blood samples at 3000 rpm for 5 min, plasma removed and blood washed with RPMI twice, and malaria-naïve AB+ serum was added at a 50:50 ratio [30]. One millilitre of blood was fed to each group of 100 mosquitoes in 0.5-l cardboard containers and unfed mosquitoes were removed. Mosquitoes were maintained on 10% sucrose ad libitum at the Mae Sot field insectary (25 ± 1 °C and 70 ± 10% relative humidity, light 12 h:12 h dark photoperiod). Once infected with P. vivax, blood-fed mosquitoes were securely transported back to Bangkok and maintained in a separate insectary (25 ± 1 °C and 70 ± 10% relative humidity, light 12 h:12 h dark photoperiod).
Unfed mosquitoes were removed from the feeding containers after each blood meal. Mosquitoes from the DPI 0 and DPI −3 feeding schedules were dissected 7 days post parasite ingestion to enumerate oocysts. Midguts were dissected with minuten pins into saline on a microscope slide and stained with 0.4% mercurochrome and viewed at 40× magnification with a compound microscope to determine oocyst prevalence and intensity. Approximately 25 mosquitoes were dissected from each control and treatment group at each dissection time point. Dissectors were blinded to treatment groups. Due to lack of initial mosquito blood feeding and mosquitoes lost to experimental mortality and oocyst dissections at day 7 post parasite feeding, not enough mosquitoes remained at day 14 post parasite feeding to determine sporozoite prevalence for the DPI −3 and 0 experiments. Mosquitoes from the DPI 6 and 9 experiments were dissected 14 days post parasite ingestion to determine sporozoite prevalence. […]
as §1, with “Oocyst and sporozoite prevalence (i.e. proportion of infected mosquitoes) was compared by Fishers Exact test. Oocyst intensity (i.e. number of oocysts per infected mosquito) was compared by the Mann–Whitney U test.” left out

An. gambiae = conditions: ivermectin MDAs in Senegal at 150 µg/kg, for up to 6 days post MDA; cited from earlier work
P. falciparum = conditions: cited from earlier work
[2] = 23 healthy Thai volunteers, plasma data of trial [24]
[3] = post hoc estimate, median (interquartile range)

ivermectin
MTT mean transit absorption time, population estimate (%RSE) [1, 2]: 0.496 (17.1) h
ka absorption rate constant, population estimate (%RSE) [1, 2]: 0.317 (3.97) h^−1
IIV of CL/F (%RSE) ([1]; healthy Thai volunteers): 23.1 (25.2) %CV
IIV of F relative bioavailability (%RSE) ([1]; healthy Thai volunteers): 10.7 (42.9) %CV
IIV of MTT (%RSE) ([1]; healthy Thai volunteers): 56.1 (36.2) %CV
IIV of VP/F (%RSE) ([1]; healthy Thai volunteers): 22.8 (36.0) %CV
CL/F apparent oral elimination clearance, population estimate (%RSE) ([1]; healthy Thai volunteers, allometric scaling centred on 55 kg): 9.02 (5.49) l/h
Q/F apparent inter-compartmental clearance, population estimate (%RSE) ([1]; healthy Thai volunteers, centred on 55 kg): 16.2 (5.34) l/h
AUC0–168 [1, 3]: 1331 (919–1406) ng × h/ml
Cmax [1, 3]: 45.7 (40.3–46.9) ng/ml
Terminal half-life [1, 3]: 25.0 (23.7–29.5) h
Tmax [1, 3]: 4.76 (4.67–5.04) h
LC5 (Anopheles minimus; 7 days post blood meal): 6.7 ng/mL
LC25 (Anopheles minimus; 7 days post blood meal): 0.0113 µg/mL
LC50 (Anopheles minimus; 7 days post blood meal): 0.0163 µg/mL
IRR (Incidence Rate Ratio of mortality at day 7, treatment group divided by control group) (Anopheles minimus; ivermectin imbibed 1 ng/ml): 2.7
IRR (Incidence Rate Ratio of mortality at day 7, treatment group divided by control group) (Anopheles minimus; ivermectin imbibed 2 ng/ml): 0.5
IRR (Incidence Rate Ratio of mortality at day 7, treatment group divided by control group) (Anopheles minimus; ivermectin imbibed 3 ng/ml): 1.8
IRR (Incidence Rate Ratio of mortality at day 7, treatment group divided by control group) (Anopheles minimus; ivermectin imbibed 4 ng/ml): 2.9
IRR (Incidence Rate Ratio of mortality at day 7, treatment group divided by control group) (Anopheles minimus; ivermectin imbibed 5 ng/ml): 3.6
IRR (Incidence Rate Ratio of mortality at day 7, treatment group divided by control group) (Anopheles minimus; ivermectin imbibed 6 ng/ml): 1.3
IRR (Incidence Rate Ratio of mortality at day 7, treatment group divided by control group) (Anopheles minimus; ivermectin imbibed 8 ng/ml): 2.8
IRR (Incidence Rate Ratio of mortality at day 7, treatment group divided by control group) (Anopheles minimus; ivermectin imbibed 10 ng/ml): 3.8
IRR (Incidence Rate Ratio of mortality at day 7, treatment group divided by control group) (Anopheles minimus; ivermectin imbibed 12 ng/ml): 4.6
IRR (Incidence Rate Ratio of mortality at day 7, treatment group divided by control group) (Anopheles minimus; ivermectin imbibed 15 ng/ml): 5.8
IRR (Incidence Rate Ratio of mortality at day 7, treatment group divided by control group) (Anopheles minimus; ivermectin imbibed 18 ng/ml): 7.0
IRR (Incidence Rate Ratio of mortality at day 7, treatment group divided by control group) (Anopheles minimus; ivermectin imbibed 20 ng/ml): 9.5
IRR (Incidence Rate Ratio of mortality at day 7, treatment group divided by control group) (Anopheles minimus; ivermectin imbibed 25 ng/ml): 9.0
IRR (Incidence Rate Ratio of mortality at day 7, treatment group divided by control group) (Anopheles minimus; ivermectin imbibed 28 ng/ml): 10.5
IRR (Incidence Rate Ratio of mortality at day 7, treatment group divided by control group) (Anopheles minimus; ivermectin imbibed 30 ng/ml): 11.5
P. vivax oocyst prevalence reduced by (Plasmodium vivax; ivermectin LC5 (6.7 ng/ml) co-ingested at DPI 0): 31.3%
P. vivax mean oocyst intensity reduced by (Plasmodium vivax; ivermectin LC5 at DPI 0): 35.3%
P. vivax oocyst prevalence reduced by (Plasmodium vivax; ivermectin LC25 (11.3 ng/ml) co-ingested at DPI 0): 58.8%
P. vivax mean oocyst intensity reduced by (Plasmodium vivax; ivermectin LC25 at DPI 0, P = 0.1018): 28.5%
An. gambiae 5-day survivorship reduced by (An. gambiae): 43.6%
Effect on P. falciparum oocyst intensity in An. gambiae (P. falciparum; LC25 or LC5 at DPI 0): no effect
Effect on oocyst prevalence of P. falciparum in An. gambiae (P. falciparum; ivermectin LC5 at DPI −3): reduced oocyst prevalence
Sporontocidal effect for P. falciparum in An. gambiae (P. falciparum; ivermectin LC25 at DPI 6 and 9): significant sporontocidal effect
Effect on P. falciparum prevalence in An. gambiae (P. falciparum; ivermectin LC25 ingested concomitantly (DPI 0)): significantly reduced
